Results published in patent US9695119B2, “Methionine analogs and methods of using same” (Bioxiness Pharmaceuticals, Inc., priority 2008, dated 2017).
Read-outs that look alike come from different tables or passages of the source.

Experiments:
P. aeruginosa = assay: Broad spectrum bacterial growth inhibition, 96-well plate, M9 media; format: cell-based; set-up: unit not given here
Protocol: (§1) Table 2 and FIG. 2 summarizes a series of studies, which were performed to test eradication of bacterial growth using various species (representative strains of gram positive and gram negative microorganisms commonly associated with wound infection). A 96-well plate format was used to culture different bacteria in M9 minimal media supplemented with glucose (M9) or same media supplemented with a range of concentrations of various analogues (Methionine, I-AA and I-AB). Experiments were carried out in duplicate.

E. coli = assay: as above; format: cell-based; set-up: unit not given here
Protocol: as §1

B. subtillus = assay: as above; format: cell-based; set-up: unit not given here
Protocol: as §1

E. coli (DH5-α) = assay: MBC spot inoculation onto gridded agar plate (growth or no growth); format: cell-based; conditions: spot inoculation from well 12, 11 and 10
Protocol: MBC was determined by plating 5 μL of each sample onto a gridded agar plate (see, for example, FIG. 1B). Plates were then incubated overnight at 37° C., and examined for growth or no growth. The concentration at which there was a complete absence of colony growth was determined to be the MBC. For FIGS. 1A and 1B, the 96-well plate format was used to culture E. coli (DH5-α) cells in M9 minimal media supplemented with glucose (M9) or same media supplemented with a range of concentrations of various analogs. Experiments were carried out in duplicate.

[1] = test system: CV-1 (African Green Monkey Kidney Cells) cells; conditions: 60 min, pH 7
Protocol: Preliminary studies of cytotoxicity were performed in a mammalian cell viability assay.
CV-1 cells were propagated in DMEM plus 8% FBS according to supplier's recommendations. CV-1 cells were seeded at 1.5×10^4 cells per well in 96-well plates and incubated overnight at 37° C. On the day of testing, growth medium was aspirated from each well, and 20 μl fresh medium was added per well. Test articles were diluted from 50 mM to 0.05 mM by 2-fold serial dilution using PBS at pH 7.0 for each test article. After which 80 μl of each dilution was added to each well for a total volume of 100 μl per well. Following 60 minutes exposure at 37° C., test articles were aspirated and replaced with fresh 100 μl tissue culture media and incubated for 24 hours at 37° C. Next day cell culture media was removed and cell viability was determined by addition of WST-8 (Dojindo, Japan) reagent and the absorption at 450 nm read spectrophotometrically. Orange-red formazan, which is produced by live cells, is a direct measure of cell viability in this assay.
Results are expressed as percentage of cells surviving the treatment as compared to PBS.

`CSCC[C@H](NC(=O)CN)C(=O)NO.Cl` [I-AB, (S)-2-(2-aminoacetamido)-N-hydroxy-4-(methylthio)butanamide hydrochloride] was tested, and the “Broad Spectrum Bacterial Growth Inhibition Data, P. aeruginosa” value (P. aeruginosa; Conc. 0.0, well 4, M9 media) was 1.1, the “Broad Spectrum Bacterial Growth Inhibition Data, P. aeruginosa” value (P. aeruginosa; Conc. 0.1, well 5, M9 media) was 1.0 and the “Broad Spectrum Bacterial Growth Inhibition Data, P. aeruginosa” value (P. aeruginosa; Conc. 0.2, well 6, M9 media) was 1.0. The “Broad Spectrum Bacterial Growth Inhibition Data, P. aeruginosa” value (P. aeruginosa; Conc. 0.4, well 7, M9 media) was 1.0, the “Broad Spectrum Bacterial Growth Inhibition Data, P. aeruginosa” value (P. aeruginosa; Conc. 0.8, well 8, M9 media) was 1.0 and the “Broad Spectrum Bacterial Growth Inhibition Data, P. aeruginosa” value (P. aeruginosa; Conc. 1.6, well 9, M9 media) was 1.0. For the same compound, the “Broad Spectrum Bacterial Growth Inhibition Data, P. aeruginosa” value (P. aeruginosa; Conc. 3.1, well 10, M9 media) was 1.0, the “Broad Spectrum Bacterial Growth Inhibition Data, P. aeruginosa” value (P. aeruginosa; Conc. 6.3, well 11, M9 media) was 0.1 and the “Broad Spectrum Bacterial Growth Inhibition Data, P. aeruginosa” value (P. aeruginosa; Conc. 12.5, well 12, M9 media) was 0.1. The “Broad Spectrum Bacterial Growth Inhibition Data, E. coli” value (E. coli; Conc. 0.0, well 4, M9 media) was 0.4, the “Broad Spectrum Bacterial Growth Inhibition Data, E. coli” value (E. coli; Conc. 0.1, well 5, M9 media) was 0.4 and the “Broad Spectrum Bacterial Growth Inhibition Data, E. coli” value (E. coli; Conc. 0.2, well 6, M9 media) was 0.4. The “Broad Spectrum Bacterial Growth Inhibition Data, E. coli” value (E. coli; Conc. 0.4, well 7, M9 media) was 0.4, the “Broad Spectrum Bacterial Growth Inhibition Data, E. coli” value (E. coli; Conc. 0.8, well 8, M9 media) was 0.5 and the “Broad Spectrum Bacterial Growth Inhibition Data, E. coli” value (E. coli; Conc. 1.6, well 9, M9 media) was 0.4. For the same compound, the “Broad Spectrum Bacterial Growth Inhibition Data, E. coli” value (E. coli; Conc. 3.1, well 10, M9 media) was 0.2, the “Broad Spectrum Bacterial Growth Inhibition Data, E. coli” value (E. coli; Conc. 6.3, well 11, M9 media) was 0.2 and the “Broad Spectrum Bacterial Growth Inhibition Data, E. coli” value (E. coli; Conc. 12.5, well 12, M9 media) was 0.2. The “Broad Spectrum Bacterial Growth Inhibition Data, B. subtillus” value (B. subtillus; Conc. 0.0, well 4, M9 media) was 0.5, the “Broad Spectrum Bacterial Growth Inhibition Data, B. subtillus” value (B. subtillus; Conc. 0.1, well 5, M9 media) was 0.5 and the “Broad Spectrum Bacterial Growth Inhibition Data, B. subtillus” value (B. subtillus; Conc. 0.2, well 6, M9 media) was 0.4. For the same compound, the “Broad Spectrum Bacterial Growth Inhibition Data, B. subtillus” value (B. subtillus; Conc. 0.4, well 7, M9 media) was 0.4, the “Broad Spectrum Bacterial Growth Inhibition Data, B. subtillus” value (B. subtillus; Conc. 0.8, well 8, M9 media) was 0.2 and the “Broad Spectrum Bacterial Growth Inhibition Data, B. subtillus” value (B. subtillus; Conc. 1.6, well 9, M9 media) was 0.2. For the same compound, the “Broad Spectrum Bacterial Growth Inhibition Data, B. subtillus” value (B. subtillus; Conc. 3.1, well 10, M9 media) was 0.2, the “Broad Spectrum Bacterial Growth Inhibition Data, B. subtillus” value (B. subtillus; Conc. 6.3, well 11, M9 media) was 0.2 and the “Broad Spectrum Bacterial Growth Inhibition Data, B. subtillus” value (B. subtillus; Conc. 12.5, well 12, M9 media) was 0.2. The “Re-growth after spot inoculation on agar plate” value (E. coli (DH5-α)) was “absence of re-growth”, the “Percentage of Surviving CV-1 cells relative to PBS” value ([1]; 0.1 mM) was 97% and the “Percentage of Surviving CV-1 cells relative to PBS” value ([1]; 0.2 mM) was 94%. The “Percentage of Surviving CV-1 cells relative to PBS” value ([1]; 0.39 mM) was 97%, the “Percentage of Surviving CV-1 cells relative to PBS” value ([1]; 0.78 mM) was 97% and the “Percentage of Surviving CV-1 cells relative to PBS” value ([1]; 1.56 mM) was 98%. The “Percentage of Surviving CV-1 cells relative to PBS” value ([1]; 3.13 mM) was 100%, the “Percentage of Surviving CV-1 cells relative to PBS” value ([1]; 6.25 mM) was 100% and the “Percentage of Surviving CV-1 cells relative to PBS” value ([1]; 12.5 mM) was 101%. For the same compound, the “Percentage of Surviving CV-1 cells relative to PBS” value ([1]; 25 mM) was 100% and the “Percentage of Surviving CV-1 cells relative to PBS” value ([1]; 50 mM) was 60%.
